{"source": "patent US9828350B2", "about": "“5,6-dihydro-2H-[1,4]oxazin-3-yl-amine derivatives useful as inhibitors of beta-secretase (BACE)” (Janssen Pharmaceutica NV, priority 2010, dated 2017)", "key": {"[1]": {"tested_on": "Abeta 1-42", "experiment": "Cellular αLisa assay in SKNBE2 cells, Abeta 1-42", "type": "cell-based, human", "conditions": "incubated for 18 hours; for IC50: Homo sapiens, SKNBE2, 18 h, read-out: Cellular αLisa assay in SKNBE2 cells Abeta 42 pIC50 (converted)", "how_it_was_run": "(§1)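 Secreted Abeta levels were measured by sandwich αLisa, pairing biotin-AbN/25 donor beads with Ab4G8 acceptor beads for total Abeta or cAb42/26 for Abeta 1-42, read at 615 nm after 650 nm excitation following 1 hour. Cells were SKNBE2 expressing wild-type hAPP695, exposed to compound for 18 hours.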"}, "[2]": {"tested_on": "Abeta total", "experiment": "Cellular αLisa assay in SKNBE2 cells, Abeta total", "type": "cell-based, human", "conditions": "incubated for 18 hours; for IC50: Homo sapiens, SKNBE2, 18 h, read-out: Cellular αLisa assay in SKNBE2 cells Abetatotal pIC50 (converted)", "how_it_was_run": "as §1"}, "[3]": {"target": "T1, P-gp (Homo sapiens, UniProt P08183)", "T1 construct": "expressed in transfected cells; host or cells: LLC-PK1 cells stably transduced with MDR1 (LLC-MDR1)", "T1 sequence (P08183 whole entry)": "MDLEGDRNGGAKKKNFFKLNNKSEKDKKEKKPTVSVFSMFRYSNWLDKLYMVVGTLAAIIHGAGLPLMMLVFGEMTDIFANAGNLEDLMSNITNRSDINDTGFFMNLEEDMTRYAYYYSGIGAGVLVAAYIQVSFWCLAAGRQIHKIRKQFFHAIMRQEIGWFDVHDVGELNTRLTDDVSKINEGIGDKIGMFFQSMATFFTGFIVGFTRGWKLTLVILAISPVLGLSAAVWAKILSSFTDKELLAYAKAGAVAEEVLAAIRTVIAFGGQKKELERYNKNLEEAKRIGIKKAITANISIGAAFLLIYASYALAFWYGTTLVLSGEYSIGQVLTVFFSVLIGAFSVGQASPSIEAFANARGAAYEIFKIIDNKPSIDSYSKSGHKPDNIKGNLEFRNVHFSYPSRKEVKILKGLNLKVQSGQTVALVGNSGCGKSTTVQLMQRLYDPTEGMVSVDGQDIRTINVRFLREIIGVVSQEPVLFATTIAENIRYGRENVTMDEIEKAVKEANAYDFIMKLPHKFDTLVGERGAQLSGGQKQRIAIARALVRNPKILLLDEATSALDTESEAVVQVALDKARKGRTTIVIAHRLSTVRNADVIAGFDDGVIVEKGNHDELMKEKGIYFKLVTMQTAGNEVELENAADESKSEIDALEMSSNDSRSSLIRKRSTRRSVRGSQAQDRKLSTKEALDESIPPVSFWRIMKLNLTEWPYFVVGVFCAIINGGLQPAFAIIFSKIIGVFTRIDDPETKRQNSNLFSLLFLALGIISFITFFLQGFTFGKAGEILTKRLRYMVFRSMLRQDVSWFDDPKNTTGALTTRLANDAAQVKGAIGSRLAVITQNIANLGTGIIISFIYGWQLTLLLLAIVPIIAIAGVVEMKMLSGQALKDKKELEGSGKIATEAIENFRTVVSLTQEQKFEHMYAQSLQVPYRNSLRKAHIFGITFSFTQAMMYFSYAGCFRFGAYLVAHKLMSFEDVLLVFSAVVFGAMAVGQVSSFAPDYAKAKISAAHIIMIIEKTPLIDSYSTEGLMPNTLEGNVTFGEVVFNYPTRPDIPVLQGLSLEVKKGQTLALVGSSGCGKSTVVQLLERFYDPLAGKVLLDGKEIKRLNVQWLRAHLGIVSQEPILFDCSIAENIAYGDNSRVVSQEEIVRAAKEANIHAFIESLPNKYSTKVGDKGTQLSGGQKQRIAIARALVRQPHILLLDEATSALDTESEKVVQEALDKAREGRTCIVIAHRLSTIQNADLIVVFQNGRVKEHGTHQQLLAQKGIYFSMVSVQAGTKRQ", "experiment": "Transepithelial transport of test compounds through LLC-MDR1 monolayers", "type": "in vitro ADME", "conditions": "for Papp A→B at 120 min, 1 μM: read-out: A to B (Apparent Permeability, Papp); for Papp B→A at 120 min, 1 μM: read-out: B to A (Apparent Permeability, Papp)", "protocol": "Brief Assay Description for the Measurement of Transepithelial Transport of Test Compounds Through LLC-MDR1 Monolayers\nThe purpose of this assay was to assess both the in vitro passive permeability of test compounds and their ability to be transported substrates of P-gp using LLC-PK1 cells stably transduced with MDR1 in a trans-well system. The positive control for transport was ^3H-digoxin (30 nM) and the positive control inhibitor was GF120918 (5 μM). The marker compound for low permeability was ^14C-Mannitol (1 μM). The test compound concentration was 1 μM.\nThe integrity of the cellular monolayer was assessed in each incubation well through the inclusion of the fluorescent, low permeability marker compound, Fluorescein.\nIn detail, LLC-MDR1 cells were seeded on 24-well cell culture inserts (Millicell®-PCF, 0.4 μm, 13 mm diameter, 0.7 cm^2) at 400,000 cells/cm^2. Cell culture medium consisted of Medium 199 supplemented with 10% Foetal Bovine Serum (FBS) and 100 U/ml Penicillin/streptomycin and was replaced the day after seeding and the day before the experiment. The transport experiment was performed 5 days after seeding. On the day of the experiment, solutions of the test compounds were applied to the apical or basolateral side of the monolayers to assess transport in the A to B and B to A directions, respectively. The medium used in the assay was (OPTI-MEM (1×) (GIBCO) with 1 w/v % Bovine Serum Albumin. Inserts were incubated at 37° C. in a humidified incubator containing 5% CO2. Samples from the acceptor and donor compartments were collected after an incubation time of 120 min, to assess the permeability and to allow estimation of the test compound recovery during the experiment, respectively. Transport experiments were performed in triplicate. Absolute test compound concentrations were measured using LC-MS/MS and quantified via a calibration curve."}, "[4]": {"tested_on": "Aβtotal", "experiment": "Demonstration of in vivo efficacy, brain Aβtotal lowering (ELISA)", "conditions": "mouse brain, 30 mpk", "from_the_text": "(§2) To determine whether acute administration of an Aβ42 peptide lowering agent would reduce Aβ peptide levels in vivo, non-transgenic rodents, e.g. mice or rats were used. Animals treated with the Aβ peptide lowering agent were examined and compared to those untreated or treated with vehicle and brain levels of soluble Aβ42 and total Aβ were quantitated by standard techniques, for example, using ELISA.\n(§3) A typical protocol for measuring Aβ42 lowering in vivo is shown but it is only one of many variations that could be used to optimize the levels of detectable Aβ. For example, Aβ peptide lowering compounds were formulated in 20% hydroxypropyl 3 cyclodextrin. The Aβ peptide lowering agents were administered as a single oral dose (p.o.) or a single subcutaneous dose (s.c.) to overnight fasted animals. After a certain time, usually 2 or 4 h (as indicated in Table 19), the animals were sacrificed and Aβ42 levels were analysed.\n(§4) Blood was collected by decapitation and exsanguinations in EDTA-treated collection tubes. Blood was centrifuged at 1900 g for 10 minutes (min) at 4° C. and the plasma recovered and flash frozen for later analysis. The brain was removed from the cranium and hindbrain. The cerebellum was removed and the left and right hemisphere were separated. The left hemisphere was stored at −18° C. for quantitative analysis of test compound levels. The right hemisphere was rinsed with phosphate-buffered saline (PBS) buffer and immediately frozen on dry ice and stored at −80° C. until homogenization for biochemical assays.\n(§5) Mouse brains from non-transgenic animals were resuspended in 8 volumes of 0.4% DEA (diethylamine)/50 mM NaCl containing protease inhibitors (Roche-11873580001 or 04693159001) per gram of tissue, e.g. for 0.158 g brain, add 1.264 ml of 0.4% DEA. All samples were homogenized in the FastPrep-24 system (MP Biomedicals) using lysing matrix D (MPBio #6913-100) at 6 m/s for 20 seconds. Homogenates were centrifuged at 221.300×g for 50 min. The resulting high speed supernatants were then transferred to fresh eppendorf tubes. Nine parts of supernatant were neutralized with 1 part 0.5 M Tris-HCl pH 6.8 and used to quantify Aβtotal and Aβ42.\n(§6) To quantify the amount of Aβtotal and Aβ42 in the soluble fraction of the brain homogenates, Enzyme-Linked-Immunosorbent-Assays were used. Briefly, the standards (a dilution of synthetic Aβ1-40 and Aβ1-42, Bachem) were prepared in 1.5 ml Eppendorf tube in Ultraculture, with final concentrations ranging from 10000 to 0.3 pg/ml. The samples and standards were co-incubated with HRPO-labelled N-terminal antibody for Aβ42 detection and with the biotinylated mid-domain antibody 4G8 for Aβtotal detection. […] The plate was allowed to incubate overnight at 4° C. in order to allow formation of the antibody-amyloid complex. Following this incubation and subsequent wash steps the ELISA for Aβ42 quantification was finished by addition of Quanta Blu fluorogenic peroxidase substrate according to the manufacturer's instructions (Pierce Corp., Rockford, Ill.). A reading was performed after 10 to 15 min (excitation 320 nm/emission 420 nm).\nFor Aβtotal detection, a Streptavidine-Peroxidase-Conjugate was added, followed 60 min later by an additional wash step and addition of Quanta Blu fluorogenic peroxidase substrate according to the manufacturer's instructions (Pierce Corp., Rockford, Ill.). A reading was performed after 10 to 15 min (excitation 320 nm/emission 420 nm)."}, "[5]": {"target": "recombinant BACE1 protein (Homo sapiens, UniProt P56817)", "sequence (P56817 46-501)": "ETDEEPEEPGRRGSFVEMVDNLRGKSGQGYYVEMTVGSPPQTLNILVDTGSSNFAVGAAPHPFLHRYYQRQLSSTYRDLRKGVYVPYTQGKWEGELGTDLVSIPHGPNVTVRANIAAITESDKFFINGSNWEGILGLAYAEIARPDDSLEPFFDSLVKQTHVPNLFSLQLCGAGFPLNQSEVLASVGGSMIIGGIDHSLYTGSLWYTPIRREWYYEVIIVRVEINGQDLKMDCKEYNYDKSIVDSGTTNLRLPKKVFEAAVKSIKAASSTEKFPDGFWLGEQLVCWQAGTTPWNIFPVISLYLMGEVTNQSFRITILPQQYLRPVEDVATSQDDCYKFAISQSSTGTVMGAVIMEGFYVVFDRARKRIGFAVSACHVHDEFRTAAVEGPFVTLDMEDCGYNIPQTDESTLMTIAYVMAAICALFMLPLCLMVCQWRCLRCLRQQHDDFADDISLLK", "experiment": "Biochemical FRET based assay", "conditions": "recombinant BACE1 1 μg/ml, 120 minutes at room temperature, pH 5.0; for IC50: read-out: Biochemical FRET based assay pIC50 (converted)", "how_it_was_run": "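Proteolysis was read as the rise in donor fluorescence (320 nm excitation, 405 nm emission) from T0 to T120, expressed in RFU. The reaction ran 120 minutes at room temperature at pH 5.0 in citrate buffer with 4% DMSO, using […] quenched Swedish APP peptide and 1 μg/ml BACE1.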"}, "[6]": {"tested_on": "Aβ42", "experiment": "Demonstration of in vivo efficacy, brain Aβ42 lowering (ELISA)", "conditions": "mouse brain, 30 mpk", "from_the_text": "as §2, §3, §4, §5, §6"}}}
{"smiles": "C[C@@]1(c2cc(-c3cncnc3)c(F)cc2F)N=C(N)CO[C@H]1F", "note": "(single isomer, unassigned) [Compound 82, (S*,S*)-5-(2,4-difluoro-5-pyrimidin-5-ylphenyl)-6-fluoro-5-methyl-5,6-dihydro-2H-1,4-oxazin-3-amine]", "values": [{"measurement": "IC50", "setting": "[1]", "value": 251, "unit": "nM"}, {"measurement": "IC50", "setting": "[2]", "value": 245, "unit": "nM"}, {"measurement": "efflux ratio at 120 min, 1 μM", "setting": "[3]; pig, LLC-PK1, LLC-MDR1 monolayers, ratio of B to A and A to B permeation rates, read-out: BA/AB", "value": 2.3}, {"measurement": "Papp A→B at 120 min, 1 μM", "setting": "[3]; pig, LLC-PK1", "value": 10.5, "unit": "×10⁻⁶ cm/s"}, {"measurement": "Papp B→A at 120 min, 1 μM", "setting": "[3]; pig, LLC-PK1", "value": 23.9, "unit": "×10⁻⁶ cm/s"}, {"measurement": "Aβtotal (% Ctrl)_Mean", "setting": "[4]; s.c., 2 h", "value": 44, "unit": "% Ctrl"}, {"measurement": "IC50", "setting": "[5]", "value": 631, "unit": "nM"}, {"measurement": "Aβ42 (% Ctrl)_Mean", "setting": "[6]; s.c., 2 h", "value": 57, "unit": "% Ctrl"}]}
{"smiles": "C[C@]1(c2cc(NC(=O)c3ccc(C#N)cn3)ccc2F)N=C(N)CO[C@H]1C(F)(F)F", "note": "[Compound 169]", "values": [{"measurement": "IC50", "setting": "[1]", "value": 6.92, "unit": "nM"}, {"measurement": "IC50", "setting": "[2]", "value": 6.76, "unit": "nM"}, {"measurement": "Papp A→B at 120 min, 1 μM", "setting": "[3]; pig, LLC-PK1", "value": 10.5, "unit": "×10⁻⁶ cm/s"}, {"measurement": "Papp B→A at 120 min, 1 μM", "setting": "[3]; pig, LLC-PK1", "value": 19, "unit": "×10⁻⁶ cm/s"}, {"measurement": "Aβtotal (% Ctrl)_Mean", "setting": "[4]; p.o., 4 h", "value": 39, "unit": "% Ctrl"}, {"measurement": "IC50", "setting": "[5]", "value": 56.2, "unit": "nM"}, {"measurement": "Aβ42 (% Ctrl)_Mean", "setting": "[6]; p.o., 4 h", "value": 38, "unit": "% Ctrl"}]}
{"smiles": "CC1(c2cc(-c3cncnc3)c(F)cc2F)COCC(N)=N1", "note": "(single isomer, unassigned) [Compound 55]", "values": [{"measurement": "Cellular αLisa assay in SKNBE2 cells Abeta 42 pIC50", "setting": "[1]", "value": 6.89}, {"measurement": "Cellular αLisa assay in SKNBE2 cells Abetatotal pIC50", "setting": "[2]", "value": 6.99}, {"measurement": "A to B (Apparent Permeability, Papp)", "setting": "[3]; LLC-MDR1 monolayers, 1 μM test compound, 120 minutes, apical to basolateral, absence of GF120918", "value": 9.5, "unit": "×10⁻⁶ cm/s"}, {"measurement": "B to A (Apparent Permeability, Papp)", "setting": "[3]; LLC-MDR1 monolayers, 1 μM test compound, 120 minutes, basolateral to apical", "value": 34.4, "unit": "×10⁻⁶ cm/s"}, {"measurement": "BA/AB", "setting": "[3]; LLC-MDR1 monolayers, ratio of B to A and A to B permeation rates", "value": 3.6}, {"measurement": "Aβtotal (% Ctrl)_Mean", "setting": "[4]; s.c., 4 h", "value": 87, "unit": "% Ctrl"}, {"measurement": "Biochemical FRET based assay pIC50", "setting": "[5]", "value": 5.55}, {"measurement": "Aβ42 (% Ctrl)_Mean", "setting": "[6]; s.c., 4 h", "value": 88, "unit": "% Ctrl"}]}
{"smiles": "COc1cnc(C(=O)Nc2ccc(F)c([C@@]3(C)N=C(N)CO[C@H]3C(F)(F)F)c2)cn1", "note": "[Compound 166, (2R,3R)—N-{3-[5-amino-3-methyl-2-(trifluoromethyl)-3,6-dihydro-2H-1,4-oxazin-3-yl]-4-fluorophenyl}-5-methoxypyrazine-2-carboxamide]", "values": [{"measurement": "IC50", "setting": "[1]", "value": 12.6, "unit": "nM"}, {"measurement": "IC50", "setting": "[2]", "value": 12.3, "unit": "nM"}, {"measurement": "Papp A→B at 120 min, 1 μM", "setting": "[3]; pig, LLC-PK1", "value": 13.7, "unit": "×10⁻⁶ cm/s"}, {"measurement": "Papp B→A at 120 min, 1 μM", "setting": "[3]; pig, LLC-PK1", "value": 13.6, "unit": "×10⁻⁶ cm/s"}, {"measurement": "Aβtotal (% Ctrl)_Mean", "setting": "[4]; p.o., 4 h", "value": 43, "unit": "% Ctrl"}, {"measurement": "IC50", "setting": "[5]", "value": 50.1, "unit": "nM"}, {"measurement": "Aβ42 (% Ctrl)_Mean", "setting": "[6]; p.o., 4 h", "value": 50, "unit": "% Ctrl"}]}
